Data: patent US20210338767A1, “METHODS OF SELECTING TREATMENT FOR CXCR4-ASSOCIATED CANCER” (BioLineRx Ltd., priority 2018, published 2021)
Positions of bridges follow the written chain, without caps; N, C: chain ends. Non-standard residues stand in square brackets, D forms with d. *: point of attachment. Benzoyl(4-F) = O=C(c1ccc(F)cc1)*; Cit = NC(=O)NCCC[C@H](N)C(=O)O

Columns and labels:
[1] = system: malignant cells of hematopoietic origin including AML; settings: cited from earlier work
[2] = system: relapsed or refractory AML; assay: Phase 2a study of BL-8040 combined with high dose Ara-C (HiDAC) in relapsed/refractory AML: efficacy; assay type: in vivo, human
Description: Subjects were accrued in a conventional 3+3 design.
Follow-up period started after completion of Ara-C chemotherapy and continued for up to 6 weeks after initiation of salvage chemotherapy with Ara-C, i.e., up to Day 44. Subjects participating in the expansion phase were followed for up to 5 years after completion of the follow-up period. Subjects were contacted by telephone at approximately 3-month intervals (±1 month) after the end of the follow-up period to determine AML status and survival.

CXCR4 receptor = biological target: T1, CXCR4 receptor (Homo sapiens, UniProt P61073); assay: Pharmacodynamic assessment: CXCR4 receptor occupancy prior and post BL-8040 treatment; assay type: in vivo
T1 construct: Fold change in level of occupied CXCR4 receptor prior and post treatment with low (0.5, 0.75 and 1 mg/kg) and high; endogenous in cells
T1 sequence (P61073 whole entry): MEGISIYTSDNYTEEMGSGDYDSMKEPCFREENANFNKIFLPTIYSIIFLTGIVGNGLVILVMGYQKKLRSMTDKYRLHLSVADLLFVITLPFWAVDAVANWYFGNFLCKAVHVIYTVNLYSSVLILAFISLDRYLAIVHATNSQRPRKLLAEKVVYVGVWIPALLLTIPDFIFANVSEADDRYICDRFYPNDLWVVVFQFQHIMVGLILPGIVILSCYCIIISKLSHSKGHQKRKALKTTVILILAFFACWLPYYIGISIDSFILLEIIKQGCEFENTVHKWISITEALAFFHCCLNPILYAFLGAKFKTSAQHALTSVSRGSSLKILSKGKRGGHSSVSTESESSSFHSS
Description: (§1) FIGS. 3A-D show BL-8040 Mediated CXCR4 Receptor Occupancy and Induce Mobilization and Differentiation of AML Blasts. (A) Fold change in level of occupied CXCR4 receptor prior and post treatment with low (0.5, 0.75 and 1 mg/kg) and high (1.25, 1.5 and 2 mg/kg) BL-8040 dose levels. (B) Fold change in AML blast counts pre and post BL-8040 and BL-8040+HiDAC treatments in responders and non-responders. (C) Fold change in the level of AML blasts in the BM following BL-8040 treatment (D) Change in levels of BM Granulocytes following 2 days of BL-8040 treatment.
Receptor occupancy is typically assessed using two monoclonal antibodies (mAbs) binding to two different epitopes of the CXCR4 antigen. […] It will be appreciated that receptor occupancy can also be determined by using an antibody which binds peptide-free CXCR4 prior to and post contacting with the peptide (e.g., 12G5, supra).
According to a specific embodiment, the receptor occupancy is determined as follows: Percent or number of CXCR4 expressing cells (e.g., using 12G5 Ab) post drug (e.g., SEQ ID NO: 1) treatment out of percent or number of CXCR4 expressing cells (e.g., using 12G5 Ab) prior to drug (e.g., SEQ ID NO: 1) treatment *100, such a calculation provides receptor occupancy per cell.

AML blasts = assay: Pharmacodynamic assessment: mobilization and differentiation of AML blasts (peripheral blood, bone marrow); assay type: in vivo, human
Description: as §1

[3] = all patients at all BL-8040 dose levels (N=42)
[4] = responding subjects at the 1.5 mg/kg dose (9/23 with CR/CRi)
[5] = responding subjects within the 1.5 mg/kg dose group
[6] = subjects receiving 1.5 mg/kg (N=23)
[7] = responding patients following BL-8040 treatment vs baseline, compared to non-responders

## 4F-benzoyl-Arg-Arg-Nal-Cys-Tyr-Cit-Lys-DLys-Pro-Tyr-Arg-Cit-Cys-Arg-NH2 ({Benzoyl(4-F)}-RR[Nal]CY[Cit]K[dK]PYR[Cit]CR-NH2; disulfide 4-13 (inferred)) [BL-8040]
[1]
  cytotoxicity toward malignant cells: CXCR4-dependent preferential cytotoxicity
[2]; [3]
  1-year survival rate: 37.2%
  2-years survival rate: 20%
  3-years survival rate: 16%
[2]; all patients at all BL-8040 dose levels (N=42), with HiDAC
  median overall survival (mOS): 9.1 months
[2]; expansion group that received 1.5 mg/kg BL-8040 (9/23), with HiDAC
  composite CR rate (CR and CRi): 39%
[2]; refractory patients (9/19), with HiDAC
  composite CR rate (CR and CRi): 47%
[2]; relapsed patients (3/23), with HiDAC
  composite CR rate (CR and CRi): 13%
[2]; [4]
  1-year survival rate: 66.7%
  2-years survival rate: 44.4%
  3-years survival rate: 44.4%
  median overall survival (mOS): 21.8 months
[2]; [5]
  EFS at 1 year: 55.6%
  EFS at 2 years: 22.2%
  EFS at 3 years: 22.2%
  median duration of response (mDOR): 17.4 months
[2]; [6]
  1-year survival rate: 38.1%
  2-year survival rate: 23.8%
  3-year survival rate: 23.8%
  median overall survival (mOS): 10.7 months
CXCR4 receptor; high BL-8040 dose levels (1.25, 1.5 and 2 mg/kg)
  CXCR4 receptor occupancy: demonstrated CXCR4 receptor occupancy
CXCR4 receptor; low BL-8040 dose levels (0.5, 0.75 and 1 mg/kg)
  CXCR4 receptor occupancy: insignificant changes in receptor occupancy
AML blasts; responders vs non-responders relative to screening, following BL-8040 treatment
  levels of granulocytes in BM: Statistically significant increased levels of granulocytes
AML blasts; [7]
  leukemic blasts in BM: decreased numbers of leukemic blasts in BM
  mobilized leukemic blasts in peripheral blood: statistically significant increased numbers of mobilized leukemic blasts
